Values quoted from earlier work, collected in patent US20230390244A1, “MODIFIED RELEASE COMPOSITIONS COMPRISING MELATONIN” (Inventia Healthcare Limited, priority 2020, published 2023).

Columns and labels:
[1] = not given; remark: listed apart in the source

Structure (SMILES): COc1ccc2[nH]cc(CCNC(C)=O)c2c1 [Melatonin, N-acetyl-5-methoxytryptamine]
- time within which plasma concentrations decline (immediate-release formulation, depending on dose): ≤ 1.5 h
- half-life (in vivo): 40 to 50 min
- solubility in organic solvents ([1]; acetone, ethyl acetate and methanol): soluble
- solubility in water ([1]; water): slightly soluble
